Converted amounts (≈) assume the structure as drawn.
How the values were obtained:
[1] = test system: K. pneumoniae ATCC BAA 1705 KPC-2-positive; experiment: combination disc test CDT-KPC; assay type: cell-based; details: Klebsiella pneumoniae, BAA1705, read-out: Diameter of inhibition zone, MEM-10 disc with agent; for zone of inhibition at 300 µg/disc: agent 0.3 mg per disc
[2] = test system: C. guilliermondii IBA 155; experiment: antifungal activity (disc-diffusion, MIC, MFC); assay type: cell-based, Candida guilliermondii; details: Meyerozyma guilliermondii, IBA155; for MIC: fluconazole by Etest
Procedure, shortened: (§1)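 Disc-diffusion (0.4 mg compound per disc, DMSO solutions), MIC, and MBC for bacteria or MFC for yeasts, run per EUCAST and CLSI recommendations. References: nitrofurantoin for Gram-negative rods, linezolid for Gram-positive bacteria, fluconazole for fungi.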

[3] = test system: P. aeruginosa MUW 700 cAmpC-positive; experiment: checkerboard microdilution, antibiotic plus tested agent; assay type: cell-based, Pseudomonas aeruginosa
Procedure, shortened: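 Chequerboard layout: tested agent in three two-fold steps (4–16 mg/L) crossed with seven β-lactam dilutions (1–64 mg/L), meropenem for KPC strains and ceftazidime for the cAmpC strain. FICI from first non-growth wells, off-scale MICs raised one doubling; ≤0.5 counts as synergy, >4 antagonism.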

E. coli 77 CMY-2(+) = experiment: MIC of tested agent alone, microdilution; assay type: cell-based; details: Escherichia coli; read-out: MIC of agent alone
Procedure, shortened: (§2)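 Two-fold checkerboard dilutions pair β-lactams (1–64 mg/L) with tested agents (4–16 mg/L); agent MICs alone come from parallel microdilution.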

E. coli 76 KPC-2(+) = experiment: MIC of tested agent alone, microdilution; assay type: cell-based; details: Escherichia coli; read-out: MIC of agent alone
Procedure, shortened: as §2

[4] = test system: K. pneumoniae 83 KPC-3(+), CTX-M-3(+); experiment: MIC of tested agent alone, microdilution; assay type: cell-based; details: Klebsiella pneumoniae; read-out: MIC of agent alone
Procedure, shortened: as §2

[5] = test system: P. aeruginosa MUW 700 AmpC(+); experiment: MIC of tested agent alone, microdilution; assay type: cell-based; details: Pseudomonas aeruginosa; read-out: MIC of agent alone
Procedure, shortened: as §2

[6] = test system: K. pneumoniae ATCC BAA-1705 KPC-2(+); experiment: MIC of tested agent alone, microdilution; assay type: cell-based; details: Klebsiella pneumoniae, ATCCBAA1705; read-out: MIC of agent alone
Procedure, shortened: as §2

[7] = test system: K. pneumoniae 81 KPC-3(+); experiment: MIC of tested agent alone, microdilution; assay type: cell-based; details: Klebsiella pneumoniae; read-out: MIC of agent alone
Procedure, shortened: as §2

S. aureus ATCC 6538P = experiment: direct antimicrobial activity (disc-diffusion, MIC, MBC); assay type: cell-based; details: Staphylococcus aureus, ATCC6538P; for zone of inhibition at 0.4 mg/disc: 0.4 mg per disc, 9 mm disc (linezolid 0.03 mg, 6 mm disc), - no zone, read-out: Diameter of inhibition zone
Procedure, shortened: as §1

[8] = test system: S. epidermidis ATCC 12228; experiment: as above; assay type: cell-based; details: Staphylococcus epidermidis, ATCC12228; for zone of inhibition at 0.4 mg/disc: 0.4 mg per disc, 9 mm disc (linezolid 0.03 mg, 6 mm disc), - no zone, read-out: Diameter of inhibition zone
Procedure, shortened: as §1

E. faecalis ATCC 29212 = experiment: as above; assay type: cell-based; details: Enterococcus faecalis, ATCC29212
Procedure, shortened: as §1

[9] = test system: S. aureus ATCC 43300 MRSA; experiment: as above; assay type: cell-based; details: Staphylococcus aureus; for zone of inhibition at 0.4 mg/disc: 0.4 mg per disc, 9 mm disc (linezolid 0.03 mg, 6 mm disc), - no zone, read-out: Diameter of inhibition zone
Procedure, shortened: as §1

E. faecium ATCC 6057 = experiment: as above; assay type: cell-based; details: Enterococcus faecium, ATCC6057; for zone of inhibition at 0.4 mg/disc: 0.4 mg per disc, 9 mm disc (linezolid 0.03 mg, 6 mm disc), - no zone, read-out: Diameter of inhibition zone
Procedure, shortened: as §1

B. subtilis ATCC 6633 = experiment: direct antimicrobial activity (disc-diffusion); assay type: cell-based; details: Bacillus subtilis, ATCC6633; 0.4 mg per disc, 9 mm disc (linezolid 0.03 mg, 6 mm disc); - no zone; read-out: Diameter of inhibition zone
Procedure, shortened: as §1

S. cerevisiae ATCC 9763 = experiment: antifungal activity (disc-diffusion, MIC, MFC); assay type: cell-based; details: Saccharomyces cerevisiae, ATCC9763; fluconazole by Etest
Procedure, shortened: as §1

C. albicans ATCC 90028 = experiment: antifungal activity (disc-diffusion, MIC, MFC); assay type: cell-based; details: Candida albicans, ATCC90028; fluconazole by Etest
Procedure, shortened: as §1

C. tropicalis ATCC 750 = experiment: antifungal activity (disc-diffusion, MIC, MFC); assay type: cell-based; details: Candida tropicalis, ATCC750; fluconazole by Etest
Procedure, shortened: as §1

C. tropicalis IBA 171 = experiment: antifungal activity (disc-diffusion, MIC, MFC); assay type: cell-based; details: Candida tropicalis, IBA171; fluconazole by Etest
Procedure, shortened: as §1

[10] = test system: P. aeruginosa MUW 700 cAmpC-positive; experiment: combination disc test CDT-AmpC; assay type: cell-based; details: Pseudomonas aeruginosa, read-out: Diameter of inhibition zone, CAZ-30 disc with agent; for zone of inhibition at 100 µg/disc: agent 0.1 mg per disc

| MIC [2] [µg/mL] | MIC (E. coli 77 CMY-2(+)) [µg/mL] | MIC (E. coli 76 KPC-2(+)) [µg/mL] | MIC [4] [µg/mL] | MIC [5] [µg/mL] | MIC [6] [µg/mL] | MIC [7] [µg/mL] | MIC (S. aureus ATCC 6538P) [µg/mL] | MIC [8] [µg/mL] | MIC (E. faecalis ATCC 29212) [µg/mL] | MIC [9] [µg/mL] | MIC (E. faecium ATCC 6057) [µg/mL] | MIC (S. cerevisiae ATCC 9763) [µg/mL] | Structure (SMILES) | Average FICI with ceftazidime [3] | Interpretation of the average FICI with ceftazidime [3] | Interpretation of the lowest FICI with ceftazidime [3] | The lowest FICI with ceftazidime [3] | zone of inhibition at 0.4 mg/disc (S. aureus ATCC 6538P) [mm] | zone of inhibition at 0.4 mg/disc [8] [mm] | zone of inhibition at 0.4 mg/disc (B. subtilis ATCC 6633) [mm] | other results |
| --- | --- | --- | --- | --- | --- | --- | --- | --- | --- | --- | --- | --- | --- | --- | --- | --- | --- | --- | --- | --- | --- |
| > 400 | 400 | 400 | > 400 | > 400 | > 400 | > 400 | 100 (≈ 544 µM) | 50 (≈ 272 µM) | 400 (≈ 2180 µM) | 400 (≈ 2180 µM) | 400 (≈ 2180 µM) | > 400 | OB(O)c1cc(F)cc(B(O)O)c1 [2b] | 0.35 | S (FICI ≤ 0.5, synergy) | S (FICI ≤ 0.5, synergy) | 0.26 | 14 | 19 | 17 | zone of inhibition at 300 µg/disc [1]: 19 mm; zone of inhibition at 0.4 mg/disc [9]: 15 mm; zone of inhibition at 0.4 mg/disc (E. faecium ATCC 6057): 14 mm; MIC (C. albicans ATCC 90028): > 400 µg/mL; MIC (C. tropicalis ATCC 750): > 400 µg/mL; MIC (C. tropicalis IBA 171): > 400 µg/mL; zone of inhibition at 100 µg/disc [10]: 18 mm |
| 400 (≈ 1980 µM) | 200 | 200 | 400 | > 400 | 400 | 400 | 50 (≈ 248 µM) | 50 (≈ 248 µM) | 200 (≈ 991 µM) | 100 (≈ 496 µM) | 200 (≈ 991 µM) | > 400 | OB(O)c1cc(F)c(F)c(B(O)O)c1 [2d] | 0.35 | S (FICI ≤ 0.5, synergy) | S (FICI ≤ 0.5, synergy) | 0.26 | 22 | 12 | 15 | zone of inhibition at 100 µg/disc ([1]; agent 0.1 mg per disc): 6 mm; zone of inhibition at 0.4 mg/disc (E. faecalis ATCC 29212; 0.4 mg per disc, 9 mm disc (linezolid 0.03 mg, 6 mm disc), - no zone, read-out: Diameter of inhibition zone): 14 mm; zone of inhibition at 0.4 mg/disc [9]: 19 mm; zone of inhibition at 0.4 mg/disc (E. faecium ATCC 6057): 14 mm; MIC (C. albicans ATCC 90028): 400 µg/mL (≈ 1980 µM); MIC (C. tropicalis ATCC 750): > 400 µg/mL; MIC (C. tropicalis IBA 171): > 400 µg/mL; zone of inhibition at 100 µg/disc [10]: 18 mm |

| Structure (SMILES) | MIC [2] [µg/mL] | MIC (E. coli 77 CMY-2(+)) [µg/mL] | MIC (E. coli 76 KPC-2(+)) [µg/mL] | MIC [4] [µg/mL] | MIC [5] [µg/mL] | MIC [6] [µg/mL] | MIC [7] [µg/mL] | MIC (S. aureus ATCC 6538P) [µg/mL] | MIC [8] [µg/mL] | MIC (E. faecalis ATCC 29212) [µg/mL] | MIC [9] [µg/mL] | MIC (E. faecium ATCC 6057) [µg/mL] | MIC (S. cerevisiae ATCC 9763) [µg/mL] | Average FICI with ceftazidime [3] | Interpretation of the average FICI with ceftazidime [3] | Interpretation of the lowest FICI with ceftazidime [3] | The lowest FICI with ceftazidime [3] | zone of inhibition at 0.4 mg/disc (S. aureus ATCC 6538P) [mm] | zone of inhibition at 0.4 mg/disc [8] [mm] | zone of inhibition at 0.4 mg/disc (B. subtilis ATCC 6633) [mm] | other results |
| --- | --- | --- | --- | --- | --- | --- | --- | --- | --- | --- | --- | --- | --- | --- | --- | --- | --- | --- | --- | --- | --- |
| OB(O)c1cccc(B(O)O)c1 [2a] | > 400 | > 400 | > 400 | > 400 | > 400 | > 400 | > 400 | 100 (≈ 603 µM) | 200 (≈ 1210 µM) | 200 (≈ 1210 µM) | 400 (≈ 2410 µM) | > 400 | > 400 | 0.18 | S (FICI ≤ 0.5, synergy) | S (FICI ≤ 0.5, synergy) | 0.14 | 20 | 21 | 18 | zone of inhibition at 300 µg/disc [1]: 15 mm; zone of inhibition at 0.4 mg/disc ([2]; 0.4 mg per disc, 9 mm disc (fluconazole 0.025 mg, 6 mm disc), - no zone, read-out: Diameter of inhibition zone): 14 mm; MIC (C. albicans ATCC 90028): 400 µg/mL (≈ 2410 µM); MIC (C. tropicalis ATCC 750): > 400 µg/mL; MIC (C. tropicalis IBA 171): 400 µg/mL (≈ 2410 µM); zone of inhibition at 300 µg/disc ([10]; agent 0.3 mg per disc): 21 mm |

From article PMC10648349, “Aromatic Diboronic Acids as Effective KPC/AmpC Inhibitors” (Molecules, 2023)
